Test results: patent US9549556B2, “Macrocyclic picolinamides as fungicides” (DOW AGROSCIENCES LLC, priority 2013, dated 2017)
Like-named read-outs stand apart in the source and are kept apart here.

How the values were obtained:
[1] = tested on: Septoria tritici; experiment: Leaf blotch of wheat (SEPTTR) disease control on wheat seedlings; type: in vivo, Mycosphaerella graminicola (anamorph Septoria tritici); settings: Zymoseptoria tritici, read-out: SEPTTR disease control rating (% Control); for pest or weed control at 121.5 g/ha: 121.5 g/H, low volume (track spray) application; for pest or weed control at 100 ppm: high volume application
Method: Evaluation of Fungicidal Activity: Leaf Blotch of Wheat (Mycosphaerella graminicola; Anamorph: Septoria tritici; Bayer Code […]) Technical grades of materials were dissolved in acetone, which were then mixed with nine volumes of water containing 110 ppm Triton X-100. The fungicide solutions were applied onto wheat seedlings using an automated booth sprayer to run-off. All sprayed plants were allowed to air dry prior to further handling. All fungicides were evaluated using the aforementioned method for their activity vs. all target diseases. Wheat leaf blotch and brown rust activity were also evaluated using track spray applications, in which case the fungicides were formulated as EC formulations, containing 0.1% Trycol 5941 in the spray solutions. Wheat plants (variety Yuma) were grown from seed in a greenhouse in 50% mineral soil/50% soil-less Metro mix until the first leaf was fully emerged, with 7-10 seedlings per pot. These plants were inoculated with an aqueous spore suspension of Septoria tritici either prior to or after fungicide treatments. After inoculation the plants were kept in 100% relative humidity (one day in a dark dew chamber followed by two to three days in a lighted dew chamber at 20° C.) to permit spores to germinate and infect the leaf. The plants were then transferred to a greenhouse set at 20° C. for disease to develop. When disease symptoms were fully expressed on the 1st leaves of untreated plants, infection levels were assessed on a scale of 0 to 100 percent disease severity. Percent disease control was calculated using the ratio of disease severity on treated plants relative to untreated plants.

[2] = tested on: Puccinia triticina; experiment: Wheat brown rust (PUCCRT) disease control on wheat seedlings; type: in vivo; settings: read-out: PUCCRT disease control rating (% Control); for pest or weed control at 121.5 g/ha: 121.5 g/H, low volume (track spray) application; for pest or weed control at 100 ppm: high volume application

Row | Structure (SMILES) | melting point [°C] | pest or weed control at 121.5 g/ha ([1]; 24 h, 1DP (1 Day Protectant)) [%] | pest or weed control at 121.5 g/ha ([1]; 72 h, 3DC (3 Day Curative)) [%] | pest or weed control at 121.5 g/ha ([2]; 24 h, 1DP (1 Day Protectant)) [%] | pest or weed control at 121.5 g/ha ([2]; 72 h, 3DC (3 Day Curative)) [%] | pest or weed control at 100 ppm ([1]; 24 h, 1DP (1 Day Protectant)) [%] | pest or weed control at 100 ppm ([1]; 72 h, 3DC (3 Day Curative)) [%] | pest or weed control at 100 ppm ([2]; 24 h, 1DP (1 Day Protectant)) [%] | pest or weed control at 100 ppm ([2]; 72 h, 3DC (3 Day Curative)) [%]
1 | CC(C)CC[C@H]1[C@H](C)OC(=O)[C@@H](NC(=O)OC(C)(C)C)COC[C@@H]1O [Compound 66, tert-butyl ((3S,7R,8R,9S)-7-hydroxy-8-isopentyl-9-methyl-2-oxo-1,5-dioxonan-3-yl)carbamate] | 112 to 115 | – | – | – | – | – | – | – | –
2 | COc1ccnc(C(=O)N[C@H]2COC[C@H](OCC3CC3)[C@@H](Cc3ccc(F)cc3)[C@H](C)OC2=O)c1OC(C)=O [Compound 28] | – | > 70 | > 70 | > 70 | > 70 | – | – | – | –
3 | COc1ccnc(C(=O)N[C@H]2COC[C@H](OCC3CC3)[C@@H](Cc3ccccc3)[C@H](C)OC2=O)c1O [Compound 83] | – | – | – | – | – | > 70 | > 70 | > 70 | > 70
4 | CCCC[C@H]1[C@H](C)OC(=O)[C@@H](NC(=O)c2nccc(OC)c2OCOC(C)=O)COC[C@@H]1Oc1ccccc1 [Compound 44] | – | > 70 | > 70 | > 70 | > 70 | – | – | – | –
5 | COc1ccnc(C(=O)N[C@H]2COC[C@H](OCC3CC3)[C@@H](Cc3ccc(F)cc3)[C@H](C)OC2=O)c1OCOC(C)=O [Compound 71] | – | > 70 | > 70 | > 70 | > 70 | – | – | – | –
6 | CCCO[C@H]1COC[C@H](NC(=O)c2nccc(OC)c2O)C(=O)O[C@@H](C)[C@@H]1Cc1ccc(F)cc1 [Compound 17] | – | – | – | – | – | > 70 | > 70 | > 70 | > 70
7 | CCOCC(=O)OCOc1c(OC)ccnc1C(=O)N[C@H]1COC[C@H](OCOCc2ccccc2)[C@@H](Cc2ccccc2)[C@H](C)OC1=O [Compound 26] | – | – | – | – | – | > 70 | > 70 | > 70 | > 70
8 | COc1ccnc(C(=O)N[C@H]2COC[C@H](Oc3ccccc3)[C@@H](CCC(C)C)[C@H](C)OC2=O)c1OCOC(C)=O [Compound 32] | 44 to 50 | > 70 | > 70 | > 70 | > 70 | – | – | – | –
9 | CCCC[C@H]1[C@H](C)OC(=O)[C@@H](NC(=O)c2nccc(OC)c2O)COC[C@@H]1OCCCC(F)(F)F [Compound 65] | – | – | – | – | – | > 70 | > 70 | > 70 | < 70
10 | COc1ccnc(C(=O)N[C@H]2COC[C@H](Oc3ccc(C)cc3)[C@@H](Cc3ccc(F)cc3)[C@H](C)OC2=O)c1O [Compound 23] | – | – | – | – | – | > 70 | < 70 | > 70 | < 70
11 | CC(C)CC[C@H]1[C@H](C)OC(=O)[C@@H](NC(=O)OC(C)(C)C)COC[C@@H]1OCc1ccccc1 [Compound 42] | 70 to 72 | – | – | – | – | – | – | – | –
12 | COc1ccnc(C(=O)N[C@H]2COC[C@H](OCc3ccccc3)[C@@H](CCC(C)C)[C@H](C)OC2=O)c1O [Compound 46] | 104 to 106 | – | – | – | – | > 70 | < 70 | > 70 | > 70
